Values quoted from earlier work, collected in US20160250154A1, “FILM DELIVERY SYSTEM FOR ACTIVE INGREDIENTS” (MonoSol Rx, LLC, priority 2013, published 2016).

Details: MSDS from PI Chemical

CCCCCCCCCCC(=O)O[C@H]1CC[C@H]2[C@@H]3CCC4=CC(=O)CC[C@]4(C)[C@H]3CC[C@]12C [Testosterone Undecanoate]
classification of solubility in water: insoluble in water
